Results: patent US20260265216A1, “NOVEL THIOREDOXIN REDUCTASE INHIBITORS” (GENEXPLAIN GMBH, priority 2021, published 2026)

Tests used:
C33A = test: Growth suppression, cancer cell line panel (resazurin); format: cell-based; settings: 0.4-25.6 μM, 48 hours
Experimental: (§1) Breast, colon, ovarian, cervical, liver and lung carcinoma cell lines were grown in DMEM supplemented with 10% FBS, and antibiotics were cultured at 37° C. and 5% CO2. Osteosarcoma, melanoma, lymphoma, neuroblastoma and leukemia cell lines were cultured in RPMI 1640 with 10% FBS and antibiotics. An oxygen concentration of 0.3% was obtained by flushing a sealed box containing the cells with premixed gas composed of 95% nitrogen (N2) and 5% CO2 (AGA AB, Sweden). To obtain an oxygen concentration of 0.05%, the cells were flushed with the premixed gas continuously throughout the experiment.
(§2) Cells were grown in 96-well plates at a density of 3000 cells per well with or without doxycycline and treated with compounds. After 48 hours of incubation the proliferative cell reagent resazurin (Thermo Fisher Scientific) was added to the cells. The degree of resazurin reduction, which reflects cell viability, was measured by microplate reader by monitoring the absorbance at 570 nm and 600 nm, according to the manufacturer.
(§3) The panel of cancer cell lines, including carcinomas of breast (MDA-MB231, SKBR3, T47D, MCF7; BT549, BT20, MDA-MB468), colon, (SW480, RKO, HT29, HCT116) ovarian (OVCAR3, OVCAR4, OVCAR8), cervical (SW756, C33A), liver (HEPG2) and lung (H23), osteosarcoma (SJSA and U2OS), melanoma (ME180), lymphoma (Raji, HDLM2), neuroblastoma (SKNAS, IMR32) and leukemia (NB4, K562) were treated with increasing concentrations of 1d*HCl: 0.4; 0.8; 1.6; 3.2; 6.4; 12.8; 25.6 μM in 96-well plates. After 48 hours of incubation the proliferative cell reagent resazurin was added to the cells. The degree of resazurin reduction, which reflects cell viability, was measured by microplate reader by monitoring the absorbance at 570 nm and 600 nm, according to the manufacturer, and the IC50 and AUC (area under curve) were determined (Table 2). As could be seen in Table 2, 1d*HCl suppressed the growth of cancer cell lines of a different origin, including carcinomas, osteosarcomas, melanoma, lymphoma, leukemia and neuroblastoma. These findings open up a possibility of the application of the present invention in anti-cancer therapy in a broad range of tumor types.

OVCAR3 = test: as above; format: cell-based; settings: OVCAR3, 0.4-25.6 μM, 48 hours
Experimental: as §1, §2, §3

OVCAR4 = test: as above; format: cell-based; settings: OVCAR4, 0.4-25.6 μM, 48 hours
Experimental: as §1, §2, §3

U2OS = test: as above; format: cell-based; settings: 0.4-25.6 μM, 48 hours
Experimental: as §1, §2, §3

[1] = target: T1, recombinant purified TrxR1 (Homo sapiens, UniProt Q16881); test: TrxR1 enzymatic activity measurement in vitro; format: biochemical; settings: recombinant purified enzyme in vitro
T1 construct: made in house; host or cells: Release Factor 1-depleted E. coli strain
T1 sequence (Q16881 1-499 isoform Q16881-5): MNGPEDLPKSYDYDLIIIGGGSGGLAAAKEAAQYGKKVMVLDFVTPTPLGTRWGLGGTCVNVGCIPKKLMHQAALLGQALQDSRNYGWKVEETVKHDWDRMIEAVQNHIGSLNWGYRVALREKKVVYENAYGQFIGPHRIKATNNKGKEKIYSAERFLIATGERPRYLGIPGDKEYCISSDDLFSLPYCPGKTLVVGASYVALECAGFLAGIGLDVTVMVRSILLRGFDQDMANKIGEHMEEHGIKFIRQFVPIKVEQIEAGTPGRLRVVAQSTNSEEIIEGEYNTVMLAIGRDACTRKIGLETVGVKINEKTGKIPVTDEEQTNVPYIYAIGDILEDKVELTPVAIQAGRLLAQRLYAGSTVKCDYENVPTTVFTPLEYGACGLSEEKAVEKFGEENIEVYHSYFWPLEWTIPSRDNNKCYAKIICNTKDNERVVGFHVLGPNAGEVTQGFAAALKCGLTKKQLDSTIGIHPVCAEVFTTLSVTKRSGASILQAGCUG
Experimental: TrxR1 enzyme was recombinantly produced with high Sec contents in a specific Release Factor 1-depleted E. coli strain and purified as previously described (Arnér E S J, Holmgren A, in Current Protocols in Toxicology, Maines M, Costa L, Reed D, Sassa S, Eds. (John Wiley & Sons, Inc., New York, 2000), pp. 7.4.1-7.4.14). TrxR1 and GSR (Sigma) recombinant enzyme assays were performed in a reaction buffer containing 50 mM Tris pH 7.5 with 2 mM EDTA and 0.1 mg/mL bovine serum albumin as described previously (Arnér E S J, Holmgren A, in Current Protocols in Toxicology, Maines M, Costa L, Reed D, Sassa S, Eds. (John Wiley & Sons, Inc., New York, 2000), pp. 7.4.1-7.4.14). Briefly, assays were performed in triplicate using 96-well plates, with activity inferred from absorbance changes using a Spectra Max plate reader. Results of recombinant enzyme assays were normalized to DMSO and to no enzyme controls.
We used recombinant purified TrxR1 and GR in an in vitro assay as described in methods section.

[2] = target: T2, TrxR1 in HCT116 and MCF7 cells (Homo sapiens, UniProt Q16881); test: Detection of TrxR dimers by Western blot; format: cell-based; settings: 5 μM, detected as soon as 2 h
T2 construct: endogenous in cells; host or cells: MCF7; HCT116
T2 sequence (Q16881 1-499 isoform Q16881-5): T1 sequence (Q16881 1-499 isoform Q16881-5)
Experimental: The extraction of total cell lysates and western blot were performed according to standard procedure. The antibodies used for immunoblotting were: p53 (sc-126, Santa Cruz Biotechnology), γH2AX (#07-164, Millipore), TrxR1 19A1 (AbFrontier). Anti-β-actin monoclonal antibody (Millipore) was used as loading control. The horseradish peroxidase-coupled secondary antibodies (Jackson ImmunoResearch) and SuperSignal™ West Dura Extended Duration Substrate detection system (Thermo Fischer Scientific), and images were visualized using ChemiDoc Imaging System (Bio-Rad).
MCF7 or HCT116 cells were treated in culture with 5 or 10 μM of 1d*HCl (Example 4) in complete medium for 2 h or 6 h. For each case, duplicate drug treated samples were produced plus duplicate control treatment samples using equal volumes of the drug vehicle dimethyl sulfoxide. Detached cells from each biological replicate were washed, suspended in PBS containing protease inhibitors and cells lysed through freeze thaw cycles in liquid N2, according to the reference protocol. Soluble fraction was separated from precipitated protein by ultracentrifugation at 100000 g for 30 minutes at 4° C. and TrxR1 dimer formation was analysed using Western blot as described above. […]

For `Cl.N#Cc1c(-c2cccnc2)[n+]([O-])c2cc(F)c(N3CCOCC3)cc2[n+]1[O-]` [Compound 1d*HCl, 6-Fluoro-7-(morpholin-4-yl)-3-(pyridin-3-yl)quinoxaline-2-carbonitrile-1,4-dioxide hydrochloride], the “AUC (area under curve)” value (C33A) was 21, the “AUC (area under curve)” value (OVCAR3) was 4.813 and the “AUC (area under curve)” value (OVCAR4) was 3.7. For the same compound, the “AUC (area under curve)” value (U2OS) was 2.10, the “inhibition of enzymatic activity of TrxR1” value [1] was “efficiently inhibited the enzymatic activity of TrxR1 in a dose- and time-dependent manner” and the “formation of TrxR1 covalent dimers (130 kDa band)” value [2] was “induces the formation of TrxR1 covalent dimers”.
